Laboratory results taken from DBAASP.
In brackets after ≈: the same amount, converted by molar mass.

Experiments:
Assay in all cases: ≥ marks a high value that may be exact or a test limit, other limits are often not marked, values filed in µg/mL are converted to µM
[1] = tested on: Staphylococcus aureus ATCC 25923
[2] = tested on: Escherichia coli ATCC 25922
[3] = tested on: Pseudomonas aeruginosa ATCC 9027
[4] = tested on: Klebsiella pneumoniae ATCC 700603
[5] = tested on: Bacillus subtilis ATCC 23857
[6] = tested on: Enterococcus faecalis ATCC 29212
[7] = tested on: Staphylococcus epidermidis ATCC 12228
[8] = tested on: Acinetobacter baumannii ATCC 19606
[9] = tested on: Pseudomonas aeruginosa ATCC 27853
[10] = tested on: Salmonella enterica subsp. enterica serovar Typhimurium ATCC 14028
[11] = tested on: Klebsiella pneumoniae
[12] = tested on: Salmonella typhimurium
[13] = tested on: Escherichia coli
[14] = tested on: Bacillus cereus

MIC [1]	MIC [2]	MIC [4]	MIC [5]	MIC [13]	MIC [14]	SMILES	further results
32 µM (≈ 46.9 µg/mL)	4 µM (≈ 5.86 µg/mL)	16 µM (≈ 23.4 µg/mL)	4 µM (≈ 5.86 µg/mL)			CC[C@H](C)[C@H](NC(=O)[C@H](CCCCN)NC(=O)[C@H](CCCCN)NC(=O)[C@H](C)NC(=O)[C@@H](NC(=O)[C@H](C)NC(=O)[C@H](CC(C)C)NC(=O)[C@H](CC(C)C)NC(=O)[C@H](C)NC(=O)[C@H](CCCCN)NC(=O)[C@H](CC(C)C)NC(=O)[C@H](CC(N)=O)NC(=O)[C@H](C)N)C(C)C)C(=O)N[C@@H](CC(C)C)C(N)=O [ANLKALLAVAKKIL]	MIC [3]: 16 µM (≈ 23.4 µg/mL)
	> 128 µM		≥ 32 µM			CC[C@H](C)[C@H](NC(=O)CNC(=O)[C@@H](N)CS)C(=O)N[C@H](C(=O)N[C@@H](C)C(=O)NCC(=O)N[C@H](C(=O)N[C@H](C(=O)N[C@H](C(=O)N[C@@H](CCCCN)C(=O)N[C@H](C(=O)N[C@@H](CCCCN)C(=O)N[C@@H](CCCCN)C(=O)N[C@@H](CS)C(N)=O)[C@@H](C)CC)[C@@H](C)CC)[C@@H](C)CC)[C@@H](C)CC)[C@@H](C)CC [CGIIAGIIIKIKKC]	
16 µM (≈ 21.1 µg/mL)	32 µM (≈ 42.2 µg/mL)	32 µM (≈ 42.2 µg/mL)	16 µM (≈ 21.1 µg/mL)			CC[C@H](C)[C@H](NC(=O)[C@H](CCCN=C(N)N)NC(=O)[C@H](CCCN=C(N)N)NC(=O)[C@H](Cc1ccccc1)NC(=O)[C@H](Cc1ccccc1)NC(=O)CN)C(=O)N[C@@H](CCCCN)C(=O)N[C@H](C(=O)N[C@@H](Cc1ccccc1)C(=O)N[C@@H](Cc1ccccc1)C(N)=O)[C@@H](C)O [GFFRRIKTFF]	MIC [6]: 64 µM (≈ 84.3 µg/mL); MIC [7]: 64 µM (≈ 84.3 µg/mL); MIC [8]: 64 µM (≈ 84.3 µg/mL); MIC [9]: 8 µM (≈ 10.5 µg/mL)
	128 µM (≈ 162 µg/mL)		4 µM (≈ 5.06 µg/mL)			CC[C@H](C)[C@H](NC(=O)CN)C(=O)N[C@H](C(=O)N[C@@H](CCCCN)C(=O)NCC(=O)N[C@H](C(=O)N[C@H](C(=O)N[C@@H](CCCCN)C(=O)N[C@H](C(=O)N[C@H](C(=O)N[C@@H](CCCCN)C(=O)N[C@@H](C)C(N)=O)[C@@H](C)CC)[C@@H](C)CC)[C@@H](C)CC)[C@@H](C)CC)[C@@H](C)CC [GIIKGIIKIIKA]	
32 µM (≈ 43.8 µg/mL)	32 µM (≈ 43.8 µg/mL)	64 µM (≈ 87.5 µg/mL)	≥ 64 µM			CC[C@H](C)[C@H](NC(=O)CN)C(=O)N[C@@H](CCCN=C(N)N)C(=O)N[C@@H](Cc1c[nH]c2ccccc12)C(=O)N[C@@H](CCCCN)C(=O)N[C@@H](Cc1ccccc1)C(=O)N[C@@H](Cc1c[nH]c2ccccc12)C(=O)N[C@@H](CCCCN)C(=O)N[C@@H](Cc1ccccc1)C(=O)N[C@H](C(N)=O)[C@@H](C)O [GIRWKFWKFT]	MIC [6]: 128 µM (≈ 175 µg/mL); MIC [7]: 128 µM (≈ 175 µg/mL); MIC [8]: 128 µM (≈ 175 µg/mL); MIC [9]: 16 µM (≈ 21.9 µg/mL)
8 µM (≈ 11.5 µg/mL)	8 µM (≈ 11.5 µg/mL)	8 µM (≈ 11.5 µg/mL)	8 µM (≈ 11.5 µg/mL)			CC(C)C[C@H](NC(=O)CN)C(=O)N[C@@H](Cc1c[nH]c2ccccc12)C(=O)N[C@@H](CCCCN)C(=O)N[C@@H](CCCN=C(N)N)C(=O)N[C@@H](Cc1c[nH]c2ccccc12)C(=O)N[C@@H](CCCCN)C(=O)N[C@@H](CCCCN)C(=O)N[C@@H](Cc1ccccc1)C(=O)N[C@@H](Cc1c[nH]c2ccccc12)C(N)=O [GLWKRWKKFW]	MIC [6]: 32 µM (≈ 45.9 µg/mL); MIC [7]: 16 µM (≈ 22.9 µg/mL); MIC [8]: 16 µM (≈ 22.9 µg/mL); MIC [9]: 4 µM (≈ 5.74 µg/mL)
	> 128 µM					CC[C@H](C)[C@H](NC(=O)[C@H](Cc1ccc(O)cc1)NC(=O)[C@@H](NC(=O)[C@H](CCCN=C(N)N)NC(=O)[C@H](CC(N)=O)NC(=O)[C@H](CC(N)=O)NC(=O)CN)C(C)C)C(=O)N1CCC[C@H]1C(=O)N[C@@H](CCC(N)=O)C(=O)N1CCC[C@H]1C(=O)N[C@@H](CCCN=C(N)N)C(=O)N1CCC[C@H]1C(=O)N[C@@H](Cc1cnc[nH]1)C(=O)N1CCC[C@H]1C(=O)N[C@@H](CCCN=C(N)N)C(=O)N[C@@H](CC(C)C)C(=O)O [GNNRVYIPQPRPHPRL]	MIC [10]: > 128 µM; MIC [11]: > 128 µM
						CC[C@H](C)[C@H](NC(=O)[C@@H](NC(=O)[C@@H]1CCCN1C(=O)[C@@H](NC(=O)[C@@H]1CCCN1C(=O)[C@H](CCCCN)NC(=O)[C@H](CCCCN)NC(=O)[C@H](CO)NC(=O)CN)C(C)C)[C@@H](C)CC)C(=O)N[C@@H](Cc1ccc(O)cc1)C(=O)N[C@@H](C)C(=O)N[C@@H](CC(N)=O)C(=O)N[C@@H](CCCN=C(N)N)C(=O)N[C@@H](CCCN=C(N)N)C(=O)N[C@H](C(=O)NCC(=O)N[C@@H](CCCCN)C(=O)N[C@@H](C)C(=O)N[C@@H](CCC(N)=O)C(=O)N[C@@H](CCCN=C(N)N)C(=O)N[C@@H](CCSC)C(=O)O)[C@@H](C)O [GSKKPVPIIYANRRTGKAQRM]	MIC [12]: 20.8 µM (≈ 49.3 µg/mL)
				> 130 µM	≥ 130 µM	CC[C@H](C)[C@H](NC(=O)[C@H](CC(C)C)NC(=O)[C@H](CO)NC(=O)[C@H](C)NC(=O)[C@@H](NC(=O)[C@H](C)NC(=O)CNC(=O)[C@H](CCCCN)NC(=O)[C@H](Cc1ccccc1)NC(=O)[C@H](CCCCN)NC(=O)[C@@H](NC(=O)[C@H](C)NC(=O)[C@@H](NC(=O)[C@@H](NC(=O)[C@@H]1CCCN1C(=O)[C@H](CO)NC(=O)[C@H](CO)NC(=O)[C@@H](NC(=O)CN)C(C)C)[C@@H](C)CC)C(C)C)C(C)C)C(C)C)C(=O)N[C@@H](CCCCN)C(=O)O [GVSSPIVAVKFKGAVASLIK]	
4 µM (≈ 5.78 µg/mL)	8 µM (≈ 11.6 µg/mL)	8 µM (≈ 11.6 µg/mL)	8 µM (≈ 11.6 µg/mL)			CC[C@H](C)[C@H](NC(=O)[C@H](CCCN=C(N)N)NC(=O)[C@H](CCCCN)NC(=O)[C@H](Cc1c[nH]c2ccccc12)NC(=O)[C@H](Cc1c[nH]c2ccccc12)NC(=O)CN)C(=O)N[C@@H](CCCCN)C(=O)N[C@H](C(=O)N[C@@H](Cc1c[nH]c2ccccc12)C(=O)N[C@@H](Cc1c[nH]c2ccccc12)C(N)=O)[C@@H](C)O [GWWKRIKTWW]	MIC [6]: 16 µM (≈ 23.1 µg/mL); MIC [7]: 8 µM (≈ 11.6 µg/mL); MIC [8]: 8 µM (≈ 11.6 µg/mL); MIC [9]: 4 µM (≈ 5.78 µg/mL)
32 µM (≈ 48.7 µg/mL)	8 µM (≈ 12.2 µg/mL)	32 µM (≈ 48.7 µg/mL)	4 µM (≈ 6.09 µg/mL)			CC[C@H](C)[C@H](NC(=O)[C@H](CCCCN)NC(=O)[C@H](CCCCN)NC(=O)[C@H](C)NC(=O)[C@@H](NC(=O)[C@H](C)NC(=O)[C@H](C)NC(=O)[C@H](CC(C)C)NC(=O)[C@H](CCCCN)NC(=O)[C@H](CCCCN)NC(=O)[C@H](CC(C)C)NC(=O)[C@H](CC(N)=O)NC(=O)[C@@H](N)CC(C)C)C(C)C)C(=O)N[C@@H](CC(C)C)C(N)=O [LNLKKLAAVAKKIL]	MIC [3]: 4 µM (≈ 6.09 µg/mL)
				> 127 µM	≥ 127 µM	CC[C@H](C)[C@H](NC(=O)CNC(=O)[C@@H](NC(=O)[C@H](CCCCN)NC(=O)[C@H](C)NC(=O)[C@@H](NC(=O)[C@H](C)NC(=O)[C@H](CO)NC(=O)[C@H](CO)NC(=O)[C@H](Cc1ccccc1)NC(=O)[C@H](CC(C)C)NC(=O)[C@@H](NC(=O)[C@@H]1CCCN1C(=O)[C@@H](N)CC(C)C)C(C)C)[C@@H](C)CC)C(C)C)C(=O)N[C@@H](CCCCN)C(=O)N[C@@H](CC(C)C)C(=O)NCC(=O)N[C@@H](C)C(=O)N[C@@H](CCCCN)C(=O)N[C@H](C(=O)O)C(C)C [LPVLFSSAIAKVGIKLGAKV]	
				> 130 µM	≥ 130 µM	CC[C@H](C)[C@H](NC(=O)[C@H](CCCCN)NC(=O)CNC(=O)[C@@H](NC(=O)[C@H](C)NC(=O)[C@H](CO)NC(=O)[C@@H](N)CC(C)C)C(C)C)C(=O)N[C@@H](C)C(=O)N[C@@H](CO)C(=O)N[C@@H](CCCCN)C(=O)N[C@H](C(=O)N[C@H](C(=O)N1CCC[C@H]1C(=O)N[C@@H](CO)C(=O)N[C@H](C(=O)N[C@H](C(=O)NCC(=O)N[C@@H](C)C(=O)N[C@@H](Cc1ccccc1)C(=O)N[C@@H](CCCCN)C(=O)O)[C@@H](C)CC)C(C)C)C(C)C)C(C)C [LSAVGKIASKVVPSVIGAFK]	
				> 119 µM	≥ 119 µM	CC[C@H](C)[C@H](NC(=O)[C@H](CCSC)NC(=O)[C@H](CO)NC(=O)[C@H](Cc1ccccc1)NC(=O)[C@@H](NC(=O)[C@H](CO)NC(=O)[C@@H]1CCCN1C(=O)[C@@H](NC(=O)[C@@H](NC(=O)[C@H](CCCCN)NC(=O)[C@H](CO)NC(=O)[C@H](C)NC(=O)[C@H](CC(C)C)NC(=O)[C@H](CCCCN)NC(=O)CNC(=O)[C@@H](NC(=O)[C@@H](NC(=O)[C@@H]1CCCN1)C(C)C)[C@@H](C)CC)C(C)C)C(C)C)C(C)C)C(=O)N[C@@H](CCCCN)C(=O)N[C@@H](CCCN=C(N)N)C(=O)O [PVIGKLASKVVPSVFSMIKR]	
				> 122 µM	≥ 122 µM	CC[C@H](C)[C@H](NC(=O)[C@H](CO)NC(=O)[C@H](CS)NC(=O)[C@H](Cc1ccc(O)cc1)NC(=O)[C@@H](NC(=O)[C@H](C)NC(=O)[C@@H]1CCCN1C(=O)[C@H](Cc1ccccc1)NC(=O)[C@@H](NC(=O)[C@H](CCCCN)NC(=O)[C@H](CO)NC(=O)[C@H](C)NC(=O)[C@@H](NC(=O)[C@H](CCCN=C(N)N)NC(=O)CNC(=O)[C@H](CC(C)C)NC(=O)[C@H](C)NC(=O)[C@@H](N)CO)C(C)C)C(C)C)C(C)C)C(=O)N[C@H](C(=O)N[C@@H](CCCCN)C(=O)O)[C@@H](C)O [SALGRVASKVFPAVYCSITK]	
